10 molecules from PubChem BioAssay AID330 (DTP/NCI, 2004) can be followed below.

Values joined by “and” are separate entries in the source; they are usually repeats but may differ in a detail not shown here. Equal entries are not always repeated. Inconclusive results and toxic doses are left out.

This test deals with P388 leukemia ip, CD2F1 mice, survival T/C. Briefly: NCI In Vivo Anticancer Drug Screen. Data for tumor model P388 Leukemia (intraperitoneal) in CD2F1 (CDF1) mice. The following applies: endpoint: median survival time, higher = longer survival. The method, boiled down: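 Mice carrying the transplanted tumor received test compound or vehicle. Survival was recorded in each group, and the value is the treated-group measurement divided by that of the vehicle-treated control group.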

[1] abbreviates: dose: 50.0 mg/kg/injection, schedule: Q01DX005 (ip), vehicle: saline with Tween-80.
Where [2] appears, read: dose: 100.0 mg/kg/injection, schedule: Q01DX005 (ip), vehicle: saline with Tween-80.
Where [3] appears, read: dose: 200.0 mg/kg/injection, schedule: Q01DX005 (ip), vehicle: saline with Tween-80.

For `CC(C)CC(NC(=O)CF)C(=O)O` (stereo unspecified), the T/C (dose: 1.25 mg/kg/injection, schedule: Q01DX009 (ip), vehicle: saline with Tween-80) was 96 % of control; the T/C (dose: 2.5 mg/kg/injection, schedule: Q01DX009 (ip), vehicle: saline with Tween-80) is 109 % of control; the T/C (dose: 5.0 mg/kg/injection, schedule: Q01DX009 (ip), vehicle: saline with Tween-80) is 124 % of control.

For the molecule `CCCCCOC(=O)c1ccccc1OP(=O)(N(C)C)N(C)C`, the T/C runs as follows: (dose: 50.0 mg/kg/injection, schedule: Q01DX005 (ip), vehicle: saline) 103 % of control; (dose: 100.0 mg/kg/injection, schedule: Q01DX005 (ip), vehicle: saline) 110 % of control.

On to `CC[C@]1(O)C[C@H]2CN(CCc3c([nH]c4ccccc34)[C@@](C(=O)OC)(c3cc4c(cc3OC)N(C)[C@H]3[C@@](O)(C(=O)OC)[C@H](OC(C)=O)[C@]5(CC)C=CCN6CC[C@]43[C@@H]65)C2)C1`, for which the T/C by setting is: (dose: 0.03 mg/kg/injection, schedule: Q04DX003 (ip), vehicle: water) 100 % of control; (dose: 0.13 mg/kg/injection, schedule: Q01DX005 (ip), vehicle: saline) 172 % of control; (dose: 0.13 mg/kg/injection, schedule: Q01DX009 (ip), vehicle: saline) 162 % of control; (dose: 0.16 mg/kg/injection, schedule: Q01DX009 (ip), vehicle: saline) 160 % of control; (dose: 0.25 mg/kg/injection, schedule: Q01DX005 (ip), vehicle: saline) 202 % of control; (dose: 0.38 mg/kg/injection, schedule: Q04DX003 (ip), vehicle: saline) 162 % of control. The T/C was 160 % of control (dose: 0.4 mg/kg/injection, schedule: Q04DX003 (ip), vehicle: water); 168 % of control (dose: 0.45 mg/kg/injection, schedule: Q01DX009 (ip), vehicle: saline); 150 % of control (dose: 0.5 mg/kg/injection, schedule: Q01DX001 (ip), vehicle: saline); 163 % of control and 177 % of control (dose: 0.5 mg/kg/injection, schedule: Q01DX005 (ip), vehicle: saline); 169 % of control (dose: 0.5 mg/kg/injection, schedule: Q04DX003 (ip), vehicle: saline); 157 % of control (dose: 0.52 mg/kg/injection, schedule: Q04DX002 (ip), vehicle: saline). The T/C is, setting by setting: (dose: 0.63 mg/kg/injection, schedule: Q04DX003 (ip), vehicle: saline) 157 % of control and 248 % of control; (dose: 0.64 mg/kg/injection, schedule: Q04DX002 (ip), vehicle: saline) 179 % of control; (dose: 0.65 mg/kg/injection, schedule: Q04DX003 (ip), vehicle: saline) 173 % of control; (dose: 0.67 mg/kg/injection, schedule: Q04DX003 (ip), vehicle: saline) 185 % of control; (dose: 0.75 mg/kg/injection, schedule: Q01DX009 (ip), vehicle: saline) 91 % of control; (dose: 0.75 mg/kg/injection, schedule: Q04DX003 (ip), vehicle: saline) 198 % of control. The T/C is 90 % of control (dose: 0.8 mg/kg/injection, schedule: Q01DX009 (ip), vehicle: saline); 173 % of control and 185 % of control (dose: 0.8 mg/kg/injection, schedule: Q04DX003 (ip), vehicle: water); 196 % of control (dose: 0.86 mg/kg/injection, schedule: Q04DX002 (ip), vehicle: saline); 163 % of control (dose: 1.0 mg/kg/injection, schedule: Q01DX001 (ip), vehicle: Klucel (hydroxypropylcellulose) (HPC)); 162 % of control (dose: 1.0 mg/kg/injection, schedule: Q01DX001 (ip), vehicle: saline); 150 % of control (dose: 1.0 mg/kg/injection, schedule: Q04DX003 (ip), vehicle: water). Further, the T/C (dose: 1.08 mg/kg/injection, schedule: Q04DX002 (ip), vehicle: saline) is 199 % of control; the T/C (dose: 1.08 mg/kg/injection, schedule: Q04DX003 (ip), vehicle: saline) was 186 % of control and 201 % of control; the T/C (dose: 1.2 mg/kg/injection, schedule: Q04DX003 (ip), vehicle: saline) is 189 % of control; the T/C (dose: 1.44 mg/kg/injection, schedule: Q04DX002 (ip), vehicle: saline) is 197 % of control and 198 % of control; the T/C (dose: 1.44 mg/kg/injection, schedule: Q04DX003 (ip), vehicle: saline) is 97 % of control; the T/C (dose: 1.6 mg/kg/injection, schedule: Q04DX003 (ip), vehicle: water) is 228 % of control and 229 % of control and 234 % of control. The T/C was 218 % of control (dose: 1.8 mg/kg/injection, schedule: Q04DX002 (ip), vehicle: saline); 213 % of control and 220 % of control (dose: 1.8 mg/kg/injection, schedule: Q04DX003 (ip), vehicle: saline); 150 % of control (dose: 2.0 mg/kg/injection, schedule: Q01DX001 (ip), vehicle: clinical formulation); 110 % of control (dose: 2.0 mg/kg/injection, schedule: Q04DX003 (oral), vehicle: water); 376 % of control (dose: 2.4 mg/kg/injection, schedule: Q04DX002 (ip), vehicle: saline); 100 % of control (dose: 3.2 mg/kg/injection, schedule: Q04DX003 (ip), vehicle: water). Further, the T/C by setting is: (dose: 3.33 mg/kg/injection, schedule: Q04DX003 (ip), vehicle: saline) 240 % of control; (dose: 4.0 mg/kg/injection, schedule: Q01DX001 (ip), vehicle: Klucel (hydroxypropylcellulose) (HPC)) 216 % of control; (dose: 4.0 mg/kg/injection, schedule: Q01DX001 (ip), vehicle: clinical formulation) 171 % of control and 177 % of control; (dose: 4.0 mg/kg/injection, schedule: Q01DX001 (ip), vehicle: saline) 162 % of control and 200 % of control; (dose: 8.0 mg/kg/injection, schedule: Q01DX001 (ip), vehicle: Klucel (hydroxypropylcellulose) (HPC)) 177 % of control; (dose: 8.0 mg/kg/injection, schedule: Q01DX001 (ip), vehicle: clinical formulation) 190 % of control. In addition, the T/C reads like this: (dose: 125.0 micrograms/kg/injection, schedule: Q01DX009 (ip), vehicle: water) 172 % of control; (dose: 250.0 micrograms/kg/injection, schedule: Q01DX009 (ip), vehicle: water) 164 % of control; (dose: 500.0 micrograms/kg/injection, schedule: Q01DX009 (ip), vehicle: water) 92 % of control.

In the case of `CC(=O)Nc1ccc2cc(-c3ccc(Cl)cc3)c3nnnn3c2n1`, the T/C runs as follows: under setting [1], 96 % of control; under setting [2], 94 % of control; under setting [3], 93 % of control.

On to `c1cnn(P2(n3cccn3)=NP(n3cccn3)(n3cccn3)=NP(n3cccn3)(n3cccn3)=NP(n3cccn3)(n3cccn3)=NP(n3cccn3)(n3cccn3)=NP(n3cccn3)(n3cccn3)=N2)c1`, for which the T/C is 100 % of control (dose: 100.0 mg/kg/injection, schedule: Q01DX001 (ip), vehicle: saline with Tween-80); 100 % of control (dose: 200.0 mg/kg/injection, schedule: Q01DX001 (ip), vehicle: saline with Tween-80); 98 % of control (dose: 400.0 mg/kg/injection, schedule: Q01DX001 (ip), vehicle: saline with Tween-80).

For `CC[N+](C)(C)c1ccccc1`, the T/C is 102 % of control (dose: 6.25 mg/kg/injection, schedule: Q04DX002 (ip), vehicle: saline); 105 % of control (dose: 12.5 mg/kg/injection, schedule: Q04DX002 (ip), vehicle: saline); 99 % of control and 102 % of control (dose: 25.0 mg/kg/injection, schedule: Q04DX002 (ip), vehicle: saline).

For `Cc1cc(NC(=S)SCc2ccc(Cl)cc2)ccc1F`, the T/C was 109 % of control (dose: 50.0 mg/kg/injection, schedule: Q01DX009 (ip), vehicle: suspension in saline); 100 % of control (dose: 100.0 mg/kg/injection, schedule: Q01DX009 (ip), vehicle: suspension in saline); 94 % of control (dose: 200.0 mg/kg/injection, schedule: Q01DX009 (ip), vehicle: suspension in saline).

Consider `COc1cccc2cc3c(cc12)C(=O)C(C)=C(C)C3=O`, for which the T/C is 94 % of control (dose: 100.0 mg/kg/injection, schedule: Q04DX003 (ip), vehicle: Klucel (hydroxypropylcellulose) (HPC)); 97 % of control (dose: 200.0 mg/kg/injection, schedule: Q04DX003 (ip), vehicle: Klucel (hydroxypropylcellulose) (HPC)); 109 % of control (dose: 400.0 mg/kg/injection, schedule: Q04DX003 (ip), vehicle: Klucel (hydroxypropylcellulose) (HPC)).

For the molecule `Cc1c(-c2ccncc2)nc2ccccc2c1C(=O)O`, the T/C reads like this: under setting [1], 100 % of control; under setting [2], 100 % of control; under setting [3], 97 % of control.

Consider `O=[N+]([O-])c1ccc(SNc2ccc(NSc3ccc([N+](=O)[O-])cc3)cc2)cc1`, for which the T/C runs as follows: (dose: 12.5 mg/kg/injection, schedule: Q01DX001 (ip), vehicle: saline with Tween-80) 95 % of control; (dose: 25.0 mg/kg/injection, schedule: Q01DX001 (ip), vehicle: saline with Tween-80) 100 % of control; (dose: 50.0 mg/kg/injection, schedule: Q01DX001 (ip), vehicle: saline with Tween-80) 100 % of control.
